Measurements: patent US20190185518A9, “WARHEAD-CONTAINING PEPTIDOMIMETIC MACROCYCLES AS MODULATORS OF BFL-1” (AILERON Therapeutics, Inc., priority 2017, published 2019)
Positions of bridges follow the written chain, without caps; N, C: chain ends. Non-standard residues stand in square brackets, D forms with d. Residues, ends and D or L forms follow the SMILES beside them. Phe(4-tBu) = CC(C)(C)c1ccc(C[C@H](N)C(=O)O)cc1; Phe(4-F) = N[C@@H](Cc1ccc(F)cc1)C(=O)O; R8 = C=CCCCCCC[C@@](C)(N)C(=O)O; Cha = N[C@@H](CC1CCCCC1)C(=O)O; αMeL = CC(C)C[C@](C)(N)C(=O)O; hLeu = CC(C)CC[C@H](N)C(=O)O; S5 = C=CCCC[C@](C)(N)C(=O)O

How the values were obtained:
Mcl-1 = Mcl-1 (Homo sapiens, UniProt Q07820); experiment: Ki determination for Mcl-1 (BCL-2 family binding spectrum); settings: read-out: Ki MCL-1
Source text: (§1) To assess the binding and affinity of compounds that antagonize the interaction between a peptide and an acceptor protein, a fluorescence polarization assay (FPA) utilizing a fluoresceinated peptidomimetic macrocycle derived from a peptidomimetic precursor sequence is used, for example. The FPA technique measures the molecular orientation and mobility using polarized light and fluorescent tracer. […] A compound that antagonizes the interaction between the fluoresceinated peptidomimetic macrocycle and an acceptor protein will be detected in a competitive binding FPA experiment.
Antagonist binding activity is measured, for example, by fluorescence polarization on a luminescence spectrophotometer (e.g. Perkin-Elmer LS50B). Kd values may be determined by nonlinear regression analysis using, for example, Graphpad Prism software (GraphPad Software, Inc., San Diego, Calif.).

Bcl-xL = Bcl-xL (Homo sapiens, UniProt Q07817); experiment: Ki determination for Bcl-xL (BCL-2 family binding spectrum); settings: read-out: Ki BCL-XL
Source text: as §1
(§2) For example, putative antagonist compounds (1 nM to 1 mM) and a fluoresceinated peptidomimetic macrocycle (25 nM) are incubated with the acceptor protein (50 nM) in binding buffer (140 mM NaCl, 50 mM Tris-HCL, pH 7.4) for 30 minutes at room temperature. Antagonist binding activity is measured, for example, by fluorescence polarization on a luminescence spectrophotometer (e.g. Perkin-Elmer LS50B). Kd values may be determined by nonlinear regression analysis using, for example, Graphpad Prism software (GraphPad Software, Inc., San Diego, Calif.).

Bcl-2 = Bcl-2 (Homo sapiens, UniProt P10415); experiment: Ki determination for Bcl-2 (BCL-2 family binding spectrum); settings: read-out: Ki BCL-2
Source text: as §1, §2

Chain of Bcl-2 (P10415 whole entry, species assumed): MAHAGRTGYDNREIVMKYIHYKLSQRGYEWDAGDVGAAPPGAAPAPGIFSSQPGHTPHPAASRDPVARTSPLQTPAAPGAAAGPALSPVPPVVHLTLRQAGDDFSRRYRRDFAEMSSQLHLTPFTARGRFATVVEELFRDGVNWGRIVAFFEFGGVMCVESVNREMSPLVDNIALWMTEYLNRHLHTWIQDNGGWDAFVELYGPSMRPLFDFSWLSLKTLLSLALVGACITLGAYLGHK
Chain of Mcl-1 (Q07820 whole entry, species assumed): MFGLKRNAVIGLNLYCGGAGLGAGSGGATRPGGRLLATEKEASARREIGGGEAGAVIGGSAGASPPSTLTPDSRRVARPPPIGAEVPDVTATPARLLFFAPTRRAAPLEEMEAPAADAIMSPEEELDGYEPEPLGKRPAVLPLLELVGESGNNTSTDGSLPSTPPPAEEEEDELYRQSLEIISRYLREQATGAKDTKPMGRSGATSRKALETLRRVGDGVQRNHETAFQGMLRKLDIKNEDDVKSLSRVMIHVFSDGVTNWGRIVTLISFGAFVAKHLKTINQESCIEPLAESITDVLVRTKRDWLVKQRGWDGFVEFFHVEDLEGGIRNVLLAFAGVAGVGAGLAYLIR
Chain of Bcl-xL (Q07817 whole entry, species assumed): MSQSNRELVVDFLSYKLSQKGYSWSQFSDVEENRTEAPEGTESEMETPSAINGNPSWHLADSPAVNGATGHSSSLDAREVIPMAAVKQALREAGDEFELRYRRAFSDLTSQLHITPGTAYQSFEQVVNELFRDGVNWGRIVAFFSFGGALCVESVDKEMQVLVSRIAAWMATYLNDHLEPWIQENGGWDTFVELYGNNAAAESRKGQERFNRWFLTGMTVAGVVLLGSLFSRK

Row | Compound | Ki (Mcl-1) [nM] | Ki (Bcl-xL) [nM] | Ki (Bcl-2) [nM]
1 | CC[C@H](C)[C@H](NC(C)=O)C(=O)N[C@@H](Cc1c[nH]c2ccccc12)C(=O)N[C@H](C(=O)N[C@@H](C)C(=O)N[C@@H](CCC(N)=O)C(=O)N[C@@H](C)C(=O)N[C@@H](CC(C)C)C(=O)N[C@@H](CCCNC(=N)N)C(=O)N[C@]1(C)CCCCCCC=CCCC[C@@](C)(C(=O)N[C@@H](Cc2ccc(O)cc2)C(=O)N[C@@H](Cc2ccc(F)cc2)C(=O)N[C@@H](C)C(N)=O)NC(=O)[C@H](CC(N)=O)NC(=O)[C@H](Cc2ccccc2)NC(=O)[C@H](C)NC(=O)[C@H](CC(=O)O)NC(=O)CNC(=O)[C@H](CCC(C)C)NC1=O)[C@@H](C)CC [compound 1777] (Ac-IWIAQALR[R8][hLeu]GDAFN[S5]Y[Phe(4-F)]A-NH2; staple 9-16) | 27 | 13 | –
2 | CC[C@H](C)[C@H](NC(C)=O)C(=O)N[C@@H](Cc1c[nH]c2ccccc12)C(=O)N[C@H](C(=O)N[C@@H](C)C(=O)N[C@@H](C)C(=O)N[C@@H](C)C(=O)N[C@@H](CC(C)C)C(=O)N[C@@H](CCCNC(=N)N)C(=O)N[C@]1(C)CCCCCCC=CCCC[C@@](C)(C(=O)N[C@@H](CC(C)C)C(=O)N[C@@H](Cc2ccc(O)cc2)C(=O)N[C@@H](C)C(N)=O)NC(=O)[C@H](CC(N)=O)NC(=O)[C@H](Cc2ccccc2)NC(=O)[C@H](C)NC(=O)[C@H](CC(=O)O)NC(=O)CNC(=O)[C@H]([C@@H](C)CC)NC1=O)[C@@H](C)CC [compound 1753] (Ac-IWIAAALR[R8]IGDAFN[S5]LYA-NH2; staple 9-16) | – | – | 125
3 | CC[C@H](C)[C@H](NC(C)=O)C(=O)N[C@@H](Cc1c[nH]c2ccccc12)C(=O)N[C@H](C(=O)N[C@@H](C)C(=O)N[C@@H](C)C(=O)N[C@@H](C)C(=O)N[C@@H](CC(C)C)C(=O)N[C@@H](CCCNC(=N)N)C(=O)N[C@]1(C)CCCCCCC=CCCC[C@@](C)(C(=O)N[C@@H](Cc2ccc(O)cc2)C(=O)N[C@@H](Cc2ccc(O)cc2)C(=O)N[C@@H](C)C(N)=O)NC(=O)[C@H](CC(N)=O)NC(=O)[C@H](Cc2ccccc2)NC(=O)[C@H](C)NC(=O)[C@H](CC(=O)O)NC(=O)[C@H](C(C)C)NC(=O)[C@H]([C@@H](C)CC)NC1=O)[C@@H](C)CC [compound 1739] (Ac-IWIAAALR[R8]IVDAFN[S5]YYA-NH2; staple 9-16) | – | – | 120
4 | CC[C@H](C)[C@H](NC(C)=O)C(=O)N[C@@H](Cc1c[nH]c2ccccc12)C(=O)N[C@H](C(=O)N[C@@H](C)C(=O)N[C@@H](C)C(=O)N[C@@H](C)C(=O)N[C@@H](CC(C)C)C(=O)N[C@@H](CCCNC(=N)N)C(=O)N[C@]1(C)CCCCCCC=CCCC[C@@](C)(C(=O)N[C@@H](Cc2ccc(O)cc2)C(=O)N[C@@H](Cc2ccc(O)cc2)C(=O)N[C@@H](C)C(N)=O)NC(=O)[C@H](CC(N)=O)NC(=O)[C@H](Cc2ccccc2)NC(=O)[C@H](C)NC(=O)[C@H](CCC(=O)O)NC(=O)CNC(=O)[C@H]([C@@H](C)CC)NC1=O)[C@@H](C)CC [compound 1740] (Ac-IWIAAALR[R8]IGEAFN[S5]YYA-NH2; staple 9-16) | – | – | 142
5 | CC[C@H](C)[C@H](NC(C)=O)C(=O)N[C@@H](Cc1c[nH]c2ccccc12)C(=O)N[C@H](C(=O)N[C@@H](C)C(=O)N[C@@H](CCC(N)=O)C(=O)N[C@@H](C)C(=O)N[C@@H](CC1CCCCC1)C(=O)N[C@@H](CCCNC(=N)N)C(=O)N[C@]1(C)CCCCCCC=CCCC[C@@](C)(C(=O)N[C@@H](Cc2ccc(O)cc2)C(=O)N[C@@H](Cc2ccc(O)cc2)C(=O)N[C@@H](C)C(N)=O)NC(=O)[C@H](CC(N)=O)NC(=O)[C@H](Cc2ccccc2)NC(=O)[C@H](C)NC(=O)[C@H](CC(=O)O)NC(=O)CNC(=O)[C@H]([C@@H](C)CC)NC1=O)[C@@H](C)CC [compound 1687] (Ac-IWIAQA[Cha]R[R8]IGDAFN[S5]YYA-NH2; staple 9-16) | – | – | > 1000
6 | CC[C@H](C)[C@H](NC(C)=O)C(=O)N[C@@H](Cc1c[nH]c2ccccc12)C(=O)N[C@H](C(=O)N[C@@H](C)C(=O)N[C@@H](CCC(N)=O)C(=O)N[C@@H](C)C(=O)N[C@@H](CC(C)C)C(=O)N[C@@H](CCCNC(=N)N)C(=O)N[C@]1(C)CCCCCCC=CCCC[C@@](C)(C(=O)N[C@@H](Cc2ccc(O)cc2)C(=O)N[C@@H](Cc2ccc(O)cc2)C(=O)N[C@@H](C)C(N)=O)NC(=O)[C@H](CC(N)=O)NC(=O)[C@H](Cc2ccc(C(C)(C)C)cc2)NC(=O)[C@H](C)NC(=O)[C@H](CC(=O)O)NC(=O)CNC(=O)[C@H]([C@@H](C)CC)NC1=O)[C@@H](C)CC [compound 1745] (Ac-IWIAQALR[R8]IGDA[Phe(4-tBu)]N[S5]YYA-NH2; staple 9-16) | 21.2 | 154 | –
7 | CC[C@H](C)[C@H](NC(C)=O)C(=O)N[C@@H](Cc1c[nH]c2ccccc12)C(=O)N[C@H](C(=O)N[C@@H](C)C(=O)N[C@@H](C)C(=O)N[C@@H](C)C(=O)N[C@@H](CC(C)C)C(=O)N[C@@H](CCCNC(=N)N)C(=O)N[C@]1(C)CCCCCCC=CCCC[C@@](C)(C(=O)N[C@@H](Cc2ccc(O)cc2)C(=O)N[C@@H](Cc2ccc(O)cc2)C(=O)N[C@@H](CCCNC(=N)N)C(N)=O)NC(=O)[C@H](CC(N)=O)NC(=O)[C@H](Cc2ccccc2)NC(=O)[C@H](C)NC(=O)[C@H](CC(=O)O)NC(=O)CNC(=O)[C@H]([C@@H](C)CC)NC1=O)[C@@H](C)CC [compound 1765] (Ac-IWIAAALR[R8]IGDAFN[S5]YYR-NH2; staple 9-16) | – | – | 142
8 | CC[C@H](C)[C@H](NC(C)=O)C(=O)N[C@@H](Cc1c[nH]c2ccccc12)C(=O)N[C@H](C(=O)N[C@@H](C)C(=O)N[C@@H](C)C(=O)N[C@@H](C)C(=O)N[C@@H](CC(C)C)C(=O)N[C@@H](CCCCN)C(=O)N[C@]1(C)CCCCCCC=CCCC[C@@](C)(C(=O)N[C@@H](Cc2ccc(O)cc2)C(=O)N[C@@H](Cc2ccc(O)cc2)C(=O)N[C@@H](C)C(N)=O)NC(=O)[C@H](CC(N)=O)NC(=O)[C@H](Cc2ccccc2)NC(=O)[C@H](C)NC(=O)[C@H](CC(=O)O)NC(=O)CNC(=O)[C@H]([C@@H](C)CC)NC1=O)[C@@H](C)CC [compound 1737] (Ac-IWIAAALK[R8]IGDAFN[S5]YYA-NH2; staple 9-16) | – | – | 25.6
9 | CC[C@H](C)[C@H](NC(C)=O)C(=O)N[C@@H](Cc1c[nH]c2ccccc12)C(=O)N[C@H](C(=O)N[C@@H](C)C(=O)N[C@@H](CCC(N)=O)C(=O)N[C@@H](C)C(=O)N[C@@H](C)C(=O)N[C@@H](CCCNC(=N)N)C(=O)N[C@]1(C)CCCCCCC=CCCC[C@@](C)(C(=O)N[C@@H](Cc2ccc(F)cc2)C(=O)N[C@@H](Cc2ccc(F)cc2)C(=O)N[C@@H](C)C(N)=O)NC(=O)[C@H](CC(N)=O)NC(=O)[C@H](Cc2ccccc2)NC(=O)[C@H](C)NC(=O)[C@H](CC(=O)O)NC(=O)CNC(=O)[C@H](CCC(C)C)NC1=O)[C@@H](C)CC [compound 1781] (Ac-IWIAQAAR[R8][hLeu]GDAFN[S5][Phe(4-F)][Phe(4-F)]A-NH2; staple 9-16) | > 1000 | > 1000 | –
10 | CC[C@H](C)[C@H](NC(C)=O)C(=O)N[C@@H](Cc1c[nH]c2ccccc12)C(=O)N[C@H](C(=O)N[C@@H](C)C(=O)N[C@@H](C)C(=O)N[C@@H](C)C(=O)N[C@@H](CC(C)C)C(=O)N[C@@H](CCCNC(=N)N)C(=O)N[C@]1(C)CCCCCCC=CCCC[C@@](C)(C(=O)N[C@@H](Cc2ccc(O)cc2)C(=O)N[C@@H](Cc2ccc(O)cc2)C(=O)N[C@@H](C)C(N)=O)NC(=O)[C@H](Cc2c[nH]cn2)NC(=O)[C@H](Cc2ccccc2)NC(=O)[C@H](C)NC(=O)[C@H](CC(=O)O)NC(=O)CNC(=O)[C@H]([C@@H](C)CC)NC1=O)[C@@H](C)CC [compound 1752] (Ac-IWIAAALR[R8]IGDAFH[S5]YYA-NH2; staple 9-16) | 8 | 36.3 | –
11 | CC[C@H](C)[C@H](NC(=O)[C@H](Cc1c[nH]c2ccccc12)NC(=O)[C@](C)(CC(C)C)NC(C)=O)C(=O)N[C@@H](C)C(=O)N[C@@H](CCC(N)=O)C(=O)N[C@@H](C)C(=O)N[C@@H](CC(C)C)C(=O)N[C@@H](CCCNC(=N)N)C(=O)N[C@]1(C)CCCCCCC=CCCC[C@@](C)(C(=O)N[C@@H](Cc2ccc(O)cc2)C(=O)N[C@@H](Cc2ccc(O)cc2)C(=O)N[C@@H](C)C(N)=O)NC(=O)[C@H](CC(N)=O)NC(=O)[C@H](Cc2ccccc2)NC(=O)[C@H](C)NC(=O)[C@H](CC(=O)O)NC(=O)CNC(=O)[C@H]([C@@H](C)CC)NC1=O [compound 1705] (Ac-[αMeL]WIAQALR[R8]IGDAFN[S5]YYA-NH2; staple 9-16) | 5.2 | 8.4 | –
12 | CC[C@H](C)[C@H](NC(C)=O)C(=O)N[C@@H](Cc1c[nH]c2ccccc12)C(=O)N[C@H](C(=O)N[C@@H](C)C(=O)N[C@@H](C)C(=O)N[C@@H](C)C(=O)N[C@@H](CC(C)C)C(=O)N[C@@H](CCCNC(=N)N)C(=O)N[C@]1(C)CCCCCCC=CCCC[C@@](C)(C(=O)N[C@@H](Cc2ccc(O)cc2)C(=O)N[C@@H](Cc2ccc(O)cc2)C(=O)N[C@@H](C)C(N)=O)NC(=O)[C@H](CC(N)=O)NC(=O)[C@H](Cc2ccccc2)NC(=O)[C@H](C)NC(=O)[C@H](CC(=O)O)NC(=O)CNC(=O)[C@H]([C@@H](C)CC)NC1=O)[C@@H](C)CC [compound 1653] (Ac-IWIAAALR[R8]IGDAFN[S5]YYA-NH2; staple 9-16) | – | 25.6 | –
